Laboratory results published in ChEMBL document CHEMBL3885881, “DrugMatrix”.

Species on record: Rattus norvegicus
Assay: DrugMatrix - Regimen: Daily Repeat
Assay type: toxicity, organism-based, Sprague-Dawley
Parameters: regimen Daily Repeat, gender Male, age 6-8 weeks
Details: in vivo, po, route oral GAVAGE, vehicle 100 % WATER; for ABSOLUTE BASOPHIL / ABSOLUTE EOSINOPHIL / ABSOLUTE LYMPHOCYTE / ABSOLUTE MONOCYTE / ABSOLUTE SEGMENTED NEUTROPHIL / BASOPHIL / EOSINOPHIL / ERYTHROCYTE COUNT / HEMATOCRIT / HEMOGLOBIN / LEUKOCYTE COUNT / LYMPHOCYTE / MEAN CORPUSCULAR HEMOGLOBIN / MEAN CORPUSCULAR HEMOGLOBIN CONCENTRATION / MEAN CORPUSCULAR VOLUME / MONOCYTE / NEUTROPHIL / NUCLEATED RED BLOOD CELLS / PLATELET COUNT: tissue Blood; for ALANINE AMINOTRANSFERASE / ALBUMIN / ALKALINE PHOSPHATASE / ASPARTATE AMINOTRANSFERASE / BLOOD UREA NITROGEN / CARBON DIOXIDE / CHLORIDE / CHOLESTEROL / CREATINE PHOSPHOKINASE / CREATININE / GLUCOSE / LIPASE / PHOSPHORUS / POTASSIUM / SODIUM / TOTAL BILIRUBIN / TOTAL PROTEIN / URIC ACID: tissue Plasma
[1] = 0 mg/kg, 72 h, dose level Control, time 3 day
[2] = 0 mg/kg, 120 h, dose level Control, time 5 day
[3] = 175 mg/kg, 72 h, dose level High, time 3 day

CC(C)NCC(O)COc1cccc2ccccc12 (stereo unspecified) [PROPRANOLOL]
ABSOLUTE BASOPHIL [1]: 0 CELLS/uL | ABSOLUTE EOSINOPHIL [1]: 46 CELLS/uL | ABSOLUTE LYMPHOCYTE [1]: 10225.67 CELLS/uL | ABSOLUTE MONOCYTE [1]: 319.33 CELLS/uL | ABSOLUTE SEGMENTED NEUTROPHIL [1]: 1242.33 CELLS/uL | BASOPHIL [1]: 0% | EOSINOPHIL [1]: 0.33% | ERYTHROCYTE COUNT [1]: 5.17 x10E6/uL | HEMATOCRIT [1]: 33.43% | HEMOGLOBIN [1]: 12.55 G/DL | LEUKOCYTE COUNT [1]: 11.83 x10E3/uL | LYMPHOCYTE [1]: 86.5% | MEAN CORPUSCULAR HEMOGLOBIN [1]: 24.35 pg | MEAN CORPUSCULAR HEMOGLOBIN CONCENTRATION [1]: 37.57 G/DL | MEAN CORPUSCULAR VOLUME [1]: 64.8 fL | MONOCYTE [1]: 2.67% | NEUTROPHIL [1]: 10.5% | NUCLEATED RED BLOOD CELLS [1]: 0.17 /100WBC | PLATELET COUNT [1]: 1026.17 x10E3/uL | ALANINE AMINOTRANSFERASE [1]: 52.67 u/L | ALBUMIN [1]: 4.17 G/DL | ALKALINE PHOSPHATASE [1]: 331 u/L | ASPARTATE AMINOTRANSFERASE [1]: 92.33 u/L | BLOOD UREA NITROGEN [1]: 15.33 mg/dL | CARBON DIOXIDE [1]: 26.17 mmol/L | CHLORIDE [1]: 103.17 MEQ/L | CHOLESTEROL [1]: 73.67 mg/dL | CREATINE PHOSPHOKINASE [1]: 472.83 u/L | CREATININE [1]: 0.29 mg/dL | GLUCOSE [1]: 178.5 mg/dL | LIPASE [1]: 10.67 u/L | PHOSPHORUS [1]: 12.45 mg/dL | POTASSIUM [1]: 6.35 MEQ/L | SODIUM [1]: 144.27 MEQ/L | TOTAL BILIRUBIN [1]: 0.13 mg/dL | TOTAL PROTEIN [1]: 5.77 G/DL | URIC ACID [1]: 2.08 mg/dL | ABSOLUTE BASOPHIL [2]: 0 CELLS/uL | ABSOLUTE EOSINOPHIL [2]: 23.5 CELLS/uL | ABSOLUTE LYMPHOCYTE [2]: 12797.33 CELLS/uL | ABSOLUTE MONOCYTE [2]: 465.5 CELLS/uL | ABSOLUTE SEGMENTED NEUTROPHIL [2]: 1313.67 CELLS/uL | BASOPHIL [2]: 0% | EOSINOPHIL [2]: 0.17% | ERYTHROCYTE COUNT [2]: 5.76 x10E6/uL | HEMATOCRIT [2]: 36.72% | HEMOGLOBIN [2]: 13.72 G/DL | LEUKOCYTE COUNT [2]: 14.6 x10E3/uL | LYMPHOCYTE [2]: 87.5% | MEAN CORPUSCULAR HEMOGLOBIN [2]: 23.8 pg | MEAN CORPUSCULAR HEMOGLOBIN CONCENTRATION [2]: 37.35 G/DL | MEAN CORPUSCULAR VOLUME [2]: 63.72 fL | MONOCYTE [2]: 3.17% | NEUTROPHIL [2]: 9.17% | NUCLEATED RED BLOOD CELLS [2]: 0.33 /100WBC | PLATELET COUNT [2]: 1270.67 x10E3/uL | ALANINE AMINOTRANSFERASE [2]: 50.5 u/L | ALBUMIN [2]: 4.32 G/DL | ALKALINE PHOSPHATASE [2]: 339.67 u/L | ASPARTATE AMINOTRANSFERASE [2]: 88 u/L | BLOOD UREA NITROGEN [2]: 17 mg/dL | CARBON DIOXIDE [2]: 25 mmol/L | CHLORIDE [2]: 103.83 MEQ/L | CHOLESTEROL [2]: 71.33 mg/dL | CREATINE PHOSPHOKINASE [2]: 281.83 u/L | CREATININE [2]: 0.26 mg/dL | GLUCOSE [2]: 161.67 mg/dL | LIPASE [2]: 10.17 u/L | PHOSPHORUS [2]: 11.72 mg/dL | POTASSIUM [2]: 6.76 MEQ/L | SODIUM [2]: 145.17 MEQ/L | TOTAL BILIRUBIN [2]: 0.2 mg/dL | TOTAL PROTEIN [2]: 6.15 G/DL | URIC ACID [2]: 2 mg/dL | ABSOLUTE BASOPHIL [3]: 0 CELLS/uL | ABSOLUTE EOSINOPHIL [3]: 124 CELLS/uL | ABSOLUTE LYMPHOCYTE [3]: 11451.33 CELLS/uL | ABSOLUTE MONOCYTE [3]: 0 CELLS/uL | ABSOLUTE SEGMENTED NEUTROPHIL [3]: 824.67 CELLS/uL | BASOPHIL [3]: 0% | EOSINOPHIL [3]: 1% | ERYTHROCYTE COUNT [3]: 5.24 x10E6/uL | HEMATOCRIT [3]: 34.07% | HEMOGLOBIN [3]: 12.73 G/DL | LEUKOCYTE COUNT [3]: 12.4 x10E3/uL | LYMPHOCYTE [3]: 92% | MEAN CORPUSCULAR HEMOGLOBIN [3]: 24.3 pg | MEAN CORPUSCULAR HEMOGLOBIN CONCENTRATION [3]: 37.37 G/DL | MEAN CORPUSCULAR VOLUME [3]: 65.07 fL | MONOCYTE [3]: 0% | NEUTROPHIL [3]: 7% | NUCLEATED RED BLOOD CELLS [3]: 0 /100WBC | PLATELET COUNT [3]: 1403.33 x10E3/uL | ALANINE AMINOTRANSFERASE [3]: 49 u/L | ALBUMIN [3]: 4.2 G/DL | ALKALINE PHOSPHATASE [3]: 411 u/L | ASPARTATE AMINOTRANSFERASE [3]: 73.33 u/L | BLOOD UREA NITROGEN [3]: 14.33 mg/dL | CARBON DIOXIDE [3]: 24 mmol/L | CHLORIDE [3]: 103 MEQ/L | CHOLESTEROL [3]: 75.33 mg/dL | CREATINE PHOSPHOKINASE [3]: 253.33 u/L | CREATININE [3]: 0.21 mg/dL | GLUCOSE [3]: 152.33 mg/dL | LIPASE [3]: 9 u/L | PHOSPHORUS [3]: 13.13 mg/dL | POTASSIUM [3]: 6.83 MEQ/L | SODIUM [3]: 143.67 MEQ/L | TOTAL BILIRUBIN [3]: 0.13 mg/dL | TOTAL PROTEIN [3]: 5.77 G/DL | URIC ACID [3]: 2.97 mg/dL
